Measurements taken from ChEMBL document CHEMBL1153455, “N-(4-(4-(2,3-dichloro- or 2-methoxyphenyl)piperazin-1-yl)butyl)heterobiarylcarboxamides with functionalized linking chains as high affinity and enantioselective D3 receptor antagonists” (J Med Chem, 2009).

Experiments:
[1] = molecular target: T1, D(3) dopamine receptor (Homo sapiens, UniProt P35462); test: Agonist activity at human D3 receptor expressed in HEK293 cells assessed as stimulation of mitogenesis relative to quinpirole; format: functional, cell-based; design: concentration or dose not given beside the values
T1 sequence (P35462 whole entry): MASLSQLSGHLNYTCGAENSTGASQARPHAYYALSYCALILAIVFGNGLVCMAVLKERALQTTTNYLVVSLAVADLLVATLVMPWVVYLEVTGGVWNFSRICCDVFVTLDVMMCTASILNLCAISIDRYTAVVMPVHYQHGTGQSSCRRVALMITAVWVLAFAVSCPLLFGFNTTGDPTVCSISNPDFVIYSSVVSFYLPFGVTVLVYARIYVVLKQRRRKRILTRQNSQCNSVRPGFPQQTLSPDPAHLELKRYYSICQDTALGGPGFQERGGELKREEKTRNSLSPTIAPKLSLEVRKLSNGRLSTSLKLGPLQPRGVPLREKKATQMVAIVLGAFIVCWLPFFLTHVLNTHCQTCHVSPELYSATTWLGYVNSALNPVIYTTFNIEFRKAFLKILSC

[2] = molecular target: T2, D(4) dopamine receptor (Homo sapiens, UniProt P21917); test: biochemical
T2 sequence (P21917 whole entry): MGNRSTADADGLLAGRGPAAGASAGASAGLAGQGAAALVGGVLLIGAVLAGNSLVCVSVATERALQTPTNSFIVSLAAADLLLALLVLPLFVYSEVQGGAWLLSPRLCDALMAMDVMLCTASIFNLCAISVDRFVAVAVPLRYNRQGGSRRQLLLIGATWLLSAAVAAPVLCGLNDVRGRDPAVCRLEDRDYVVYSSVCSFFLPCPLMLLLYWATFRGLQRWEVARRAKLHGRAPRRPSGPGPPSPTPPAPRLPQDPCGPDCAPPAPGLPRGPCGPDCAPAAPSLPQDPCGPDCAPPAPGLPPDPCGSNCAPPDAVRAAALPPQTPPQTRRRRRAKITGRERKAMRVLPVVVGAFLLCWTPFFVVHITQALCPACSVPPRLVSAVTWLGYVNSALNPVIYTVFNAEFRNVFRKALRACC

[3] = molecular target: D(1A) dopamine receptor (Homo sapiens, UniProt P21728); test: Displacement of [3H]SCH23390 from D1 receptor
Chain of D(1A) dopamine receptor (P21728 whole entry): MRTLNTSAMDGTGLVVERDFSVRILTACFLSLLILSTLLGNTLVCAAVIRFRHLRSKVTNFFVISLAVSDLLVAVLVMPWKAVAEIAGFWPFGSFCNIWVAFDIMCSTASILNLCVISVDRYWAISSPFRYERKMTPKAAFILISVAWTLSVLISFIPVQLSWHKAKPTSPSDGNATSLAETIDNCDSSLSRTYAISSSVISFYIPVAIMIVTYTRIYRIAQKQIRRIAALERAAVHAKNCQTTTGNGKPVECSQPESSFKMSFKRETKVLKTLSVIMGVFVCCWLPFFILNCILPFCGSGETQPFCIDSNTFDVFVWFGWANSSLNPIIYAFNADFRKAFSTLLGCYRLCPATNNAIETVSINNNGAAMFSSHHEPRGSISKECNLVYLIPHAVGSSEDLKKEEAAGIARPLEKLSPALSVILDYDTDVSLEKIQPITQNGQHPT

[4] = molecular target: T1, D(3) dopamine receptor; test: biochemical
[5] = cells; settings: Homo sapiens, HEK293
Description: Antagonist activity at human D2 like receptor expressed in HEK293 cells assessed as inhibition of quinpirole-stimulated mitogenesis

[6] = species on record: Homo sapiens; test: Selectivity of IC50 for human D2 like receptor to IC50 for human D3 receptor
[7] = molecular target: T3, 5-hydroxytryptamine receptor 1A (Homo sapiens, UniProt P08908); test: Displacement of [3H]8-OH-DPAT from 5HT1A receptor
T3 sequence (P08908 whole entry): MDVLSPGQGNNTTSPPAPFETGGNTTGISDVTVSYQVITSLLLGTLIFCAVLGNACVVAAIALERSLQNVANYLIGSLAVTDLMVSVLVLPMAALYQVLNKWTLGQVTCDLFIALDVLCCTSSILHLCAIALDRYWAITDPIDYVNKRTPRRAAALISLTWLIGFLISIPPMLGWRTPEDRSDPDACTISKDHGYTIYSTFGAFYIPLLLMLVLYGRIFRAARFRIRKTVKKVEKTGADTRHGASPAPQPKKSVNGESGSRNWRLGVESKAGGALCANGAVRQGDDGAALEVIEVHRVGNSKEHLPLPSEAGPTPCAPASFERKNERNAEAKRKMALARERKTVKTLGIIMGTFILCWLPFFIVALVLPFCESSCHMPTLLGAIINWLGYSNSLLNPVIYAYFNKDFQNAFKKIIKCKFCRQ

[8] = Antagonist activity at human D3 receptor expressed in HEK293 cells assessed as inhibition of quinpirole-stimulated mitogenesis
[9] = molecular target: T1, D(3) dopamine receptor

SMILES | Ki [2] | Ki [3] | Ki [4] | IC50 [5] | other results
O=C(NCCC(O)CN1CCN(c2cccc(Cl)c2Cl)CC1)c1cc2ccccc2o1 (stereo unspecified) | > 10000 nM | > 10000 nM | 6.11 nM |  | Activity [1]: 22.6%
O=C(NCCC(O)CN1CCN(c2cccc(Cl)c2Cl)CC1)c1cc2cc(I)ccc2o1 (stereo unspecified) | > 10000 nM | > 10000 nM | 7.71 nM |  | Activity [1]: 23.6%
O=C(NCCC(O)CN1CCN(c2cccc(Cl)c2Cl)CC1)c1cc2cc(I)ccc2[nH]1 (stereo unspecified) | > 10000 nM | > 10000 nM | 5.21 nM |  | Activity [1]: 26%
COc1ccccc1N1CCN(CC(O)CCNC(=O)c2cc3cc(F)ccc3[nH]2)CC1 (stereo unspecified) | 967 nM | 5060 nM | 2.41 nM | 270 nM | fold change (FC) [6]: 100
O=C(NC/C=C/CN1CCN(c2cccc(Cl)c2Cl)CC1)c1cc2ccccc2[nH]1 | 640 nM | 910 nM | 0.44 nM | 175 nM | Ki [7]: 193 nM
O=C(NCC(O)CCN1CCN(c2cccc(Cl)c2Cl)CC1)c1cc2ccccc2[nH]1 (stereo unspecified) | 1040 nM | > 10000 nM |  | 340 nM | Ki [7]: 58.3 nM
COc1ccccc1N1CCN(C/C=C/CNC(=O)c2cc3ccccc3s2)CC1 |  | 678 nM | 2.61 nM |  | 
COc1ccccc1N1CCN(CC(O)CCNC(=O)c2cc3ccccc3o2)CC1 (stereo unspecified) | 2140 nM | > 10000 nM | 7.51 nM |  | 
COc1ccc2[nH]c(C(=O)NCCC(O)CN3CCN(c4ccccc4OC)CC3)cc2c1 (stereo unspecified) | 1530 nM | > 10000 nM | 2.32 nM |  | fold change (FC) [6]: > 100
O=C(NCCCCN1CCN(c2cccc(Cl)c2Cl)CC1)c1cc2cc(I)ccc2o1 | 1720 nM | 2920 nM |  | 1030 nM | 
COc1ccccc1N1CCN(CC(O)CCNC(=O)c2cc3ccccc3[nH]2)CC1 (stereo unspecified) |  | > 10000 nM |  | 427 nM | Ki [7]: 132 nM
O=C(NCCC(O)CN1CCN(c2cccc(Cl)c2Cl)CC1)c1cc2cc(F)ccc2[nH]1 (stereo unspecified) | > 5000 nM | > 10000 nM |  |  | 
COc1ccc2[nH]c(C(=O)NCCC(O)CN3CCN(c4cccc(Cl)c4Cl)CC3)cc2c1 (stereo unspecified) | > 10000 nM | > 10000 nM | 1.2 nM |  | Activity [1]: 34.9%; fold change (FC) [6]: > 100
CCCOc1ccccc1N1CCN(CC(O)CCNC(=O)c2cc3ccccc3[nH]2)CC1 (stereo unspecified) |  | 4960 nM |  | 162 nM | 
O=C(NC/C=C/CN1CCN(c2cccc(Cl)c2Cl)CC1)c1cc2ccccc2s1 |  | 1730 nM |  | 254 nM | Ki [7]: 388 nM; IC50 [8]: 9.62 nM
COc1ccccc1N1CCN(CCCCNC(=O)c2cc3ccccc3[nH]2)CC1 | 476 nM |  |  |  | Ki [9]: 0.32 nM
COc1ccccc1N1CCN(CCCCNC(=O)c2cc3ccccc3s2)CC1 |  |  |  | 21.4 nM | fold change (FC) [6]: 100
COc1ccccc1N1CCN(CCCCNC(=O)c2cc3cc(I)ccc3o2)CC1 | 335 nM | 900 nM | 0.72 nM | 170 nM | 
COc1ccccc1N1CCN(CCC(O)CNC(=O)c2cc3ccccc3[nH]2)CC1 (stereo unspecified) | 176 nM |  | 0.51 nM |  | 
COc1ccccc1N1CCN(CC(O)CCNC(=O)c2cc3ccccc3s2)CC1 (stereo unspecified) |  | 6650 nM |  | 146 nM | 
COc1ccccc1N1CCN(CC(O)CCNC(=O)c2cc3cc(I)ccc3[nH]2)CC1 (stereo unspecified) | 455 nM | > 10000 nM | 3.6 nM |  | 
O=C(NCC[C@@H](O)CN1CCN(c2cccc(Cl)c2Cl)CC1)c1cc2ccccc2[nH]1 |  | > 10000 nM |  |  | 
O=C(NCC[C@H](O)CN1CCN(c2cccc(Cl)c2Cl)CC1)c1cc2ccccc2[nH]1 |  | > 10000 nM |  |  | Activity [1]: 42.2%
O=C(NC/C=C/CN1CCN(c2cccc(Cl)c2Cl)CC1)c1cc2ccccc2o1 |  | 1460 nM |  | 111 nM | Ki [7]: 58.8 nM
COc1ccccc1N1CCN(C/C=C/CNC(=O)c2cc3ccccc3o2)CC1 |  | 990 nM | 11.3 nM |  | 
COc1ccccc1N1CCN(CC(O)CCNC(=O)c2cc3cc(I)ccc3o2)CC1 (stereo unspecified) | 1290 nM | 3690 nM | 7.5 nM | 405 nM | 
